From ChEMBL document CHEMBL3414430 (J Med Chem, 2015)
Converted amounts (≈) assume the structure as drawn. The source made the active and inactive calls. The rule behind the calls is not given here.

What was measured:
[1] = biological target: T1, Protein deacetylase HDAC6 (Homo sapiens, UniProt Q9UBN7)
T1 sequence (Q9UBN7 whole entry): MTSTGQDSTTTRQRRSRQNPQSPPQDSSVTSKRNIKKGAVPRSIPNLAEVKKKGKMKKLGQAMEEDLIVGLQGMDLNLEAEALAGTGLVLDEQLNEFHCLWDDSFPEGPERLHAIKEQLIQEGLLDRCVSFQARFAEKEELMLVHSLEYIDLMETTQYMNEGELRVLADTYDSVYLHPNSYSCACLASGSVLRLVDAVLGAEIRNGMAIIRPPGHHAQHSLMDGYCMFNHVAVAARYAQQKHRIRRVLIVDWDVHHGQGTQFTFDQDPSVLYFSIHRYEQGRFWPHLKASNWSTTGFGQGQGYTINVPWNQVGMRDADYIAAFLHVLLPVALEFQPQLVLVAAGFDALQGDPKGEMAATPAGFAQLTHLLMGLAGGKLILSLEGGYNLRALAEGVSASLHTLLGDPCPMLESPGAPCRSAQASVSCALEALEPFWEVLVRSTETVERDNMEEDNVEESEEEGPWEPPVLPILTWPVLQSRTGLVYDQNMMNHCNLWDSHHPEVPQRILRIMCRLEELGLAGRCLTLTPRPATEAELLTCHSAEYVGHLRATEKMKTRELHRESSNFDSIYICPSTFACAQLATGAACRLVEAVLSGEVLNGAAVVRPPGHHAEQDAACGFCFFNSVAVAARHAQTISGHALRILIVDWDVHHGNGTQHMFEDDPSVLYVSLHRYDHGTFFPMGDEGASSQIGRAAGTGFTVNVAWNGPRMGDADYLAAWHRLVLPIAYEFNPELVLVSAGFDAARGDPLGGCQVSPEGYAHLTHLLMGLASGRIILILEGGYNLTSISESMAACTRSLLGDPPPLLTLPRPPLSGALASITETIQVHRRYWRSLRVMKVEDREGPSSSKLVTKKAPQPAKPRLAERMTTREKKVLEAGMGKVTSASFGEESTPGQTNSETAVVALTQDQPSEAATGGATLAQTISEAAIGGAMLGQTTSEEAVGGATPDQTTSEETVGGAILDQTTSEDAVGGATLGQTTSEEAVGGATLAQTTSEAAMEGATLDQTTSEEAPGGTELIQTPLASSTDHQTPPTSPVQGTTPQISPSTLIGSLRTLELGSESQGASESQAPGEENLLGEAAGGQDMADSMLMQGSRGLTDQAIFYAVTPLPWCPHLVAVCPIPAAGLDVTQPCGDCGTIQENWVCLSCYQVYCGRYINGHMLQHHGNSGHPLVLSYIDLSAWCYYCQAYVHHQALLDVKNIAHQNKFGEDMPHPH
Description: Inhibition of HDAC6 in human A549 cells assessed as induction of tubulin acetylation after 17 to 18 hrs by ELISA

[2] = biological target: Histone deacetylase 1 (Homo sapiens, UniProt Q13547)
Description: Inhibition of HDAC1 (unknown origin) using RHKK(Ac)AMC as substrate

[3] = Solubility of the compound in PBS measured after overnight incubation by LYSA assay; format: physicochemical
[4] = biological target: T2, Histone deacetylase 8 (Homo sapiens, UniProt Q9BY41)
T2 sequence (Q9BY41 whole entry): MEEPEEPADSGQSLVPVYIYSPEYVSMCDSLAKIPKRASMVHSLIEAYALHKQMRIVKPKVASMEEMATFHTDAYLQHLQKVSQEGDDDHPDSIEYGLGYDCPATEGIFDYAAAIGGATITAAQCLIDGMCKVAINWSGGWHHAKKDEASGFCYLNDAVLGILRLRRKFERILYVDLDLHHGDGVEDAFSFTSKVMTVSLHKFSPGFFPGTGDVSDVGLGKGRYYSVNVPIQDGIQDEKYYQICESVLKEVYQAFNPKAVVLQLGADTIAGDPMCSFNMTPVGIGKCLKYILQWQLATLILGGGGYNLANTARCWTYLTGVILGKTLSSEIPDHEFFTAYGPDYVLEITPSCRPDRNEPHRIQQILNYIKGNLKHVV
Description: Inhibition of HDAC8 (unknown origin) using RHK(Ac)K(Ac)AMC as substrate

[5] = biological target: T1, Protein deacetylase HDAC6; remark: listed apart in the source
Description: Inhibition of HDAC6 (unknown origin) using RHKK(Ac)AMC as substrate

[6] = biological target: T3, Histone deacetylase 1/2/3/6 (Homo sapiens) (UniProt Q13547+O15379+Q9UBN7+Q92769); conditions: HeLa, at 10 µM
Description: Inhibition of HDAC1/HDAC2/HDAC3 in human HeLa cells assessed as induction of p21 gene expression at 10 uM after 15 hrs by luciferase reporter gene assay relative to HDAC1 inhibitor SNDX-275

[7] = biological target: T3, Histone deacetylase 1/2/3/6 (Homo sapiens); test: Inhibition of HDAC1/HDAC2/HDAC3 in human HeLa cells assessed as induction of p21 gene expression at 3 to 10 uM after 15 hrs by luciferase reporter gene assay; format: cell-based
[8] = Intrinsic clearance in human liver microsomes at 1 uM preincubated for 10 mins followed by NADPH addition measured over 30 mins by LC-MS/MS analysis; format: ADME; conditions: read-out: CLH
[9] = Plasma clearance in ICR mouse; format: ADME, organism-based
[10] = Cmax in ICR mouse at 100 mg/kg, po; format: ADME, organism-based; parameters: dose 100 mg/kg, route oral; conditions: in vivo
[11] = Half life in ICR mouse at 10 mg/kg, iv; format: ADME, organism-based; parameters: dose 10 mg/kg, route intravenous; conditions: in vivo
[12] = Oral bioavailability in ICR mouse at 100 mg/kg; format: ADME, organism-based; conditions: in vivo
[13] = Intrinsic clearance in mouse liver microsomes at 1 uM preincubated for 10 mins followed by NADPH addition measured over 30 mins by LC-MS/MS analysis; format: ADME; conditions: read-out: CLH
[14] = tested on: Mus musculus; test: AUC (0 to infinity) in ICR mouse at 10 mg/kg, iv; format: ADME, organism-based, Plasma; parameters: time infinity, dose 10 mg/kg, route intravenous; conditions: in vivo
[15] = tested on: Mus musculus; test: AUC (0 to infinity) in ICR mouse at 100 mg/kg, po; format: ADME, organism-based, Plasma; parameters: time infinity, dose 100 mg/kg, route oral; conditions: in vivo
[16] = biological target: T3, Histone deacetylase 1/2/3/6 (Homo sapiens); test: Inhibition of HDAC1/HDAC2/HDAC3 in human HeLa cells assessed as induction of p21 gene expression at 10 uM after 15 hrs by luciferase reporter gene assay; format: cell-based
[17] = Oral bioavailability in ICR mouse at 50 mg/kg; format: ADME, organism-based; conditions: in vivo
[18] = tested on: Mus musculus; test: AUC (0 to infinity) in ICR mouse at 50 mg/kg, po; format: ADME, organism-based, Plasma; parameters: time infinity, dose 50 mg/kg, route oral; conditions: in vivo

T3 sequence (O15379 whole entry, looked up, one chain of several): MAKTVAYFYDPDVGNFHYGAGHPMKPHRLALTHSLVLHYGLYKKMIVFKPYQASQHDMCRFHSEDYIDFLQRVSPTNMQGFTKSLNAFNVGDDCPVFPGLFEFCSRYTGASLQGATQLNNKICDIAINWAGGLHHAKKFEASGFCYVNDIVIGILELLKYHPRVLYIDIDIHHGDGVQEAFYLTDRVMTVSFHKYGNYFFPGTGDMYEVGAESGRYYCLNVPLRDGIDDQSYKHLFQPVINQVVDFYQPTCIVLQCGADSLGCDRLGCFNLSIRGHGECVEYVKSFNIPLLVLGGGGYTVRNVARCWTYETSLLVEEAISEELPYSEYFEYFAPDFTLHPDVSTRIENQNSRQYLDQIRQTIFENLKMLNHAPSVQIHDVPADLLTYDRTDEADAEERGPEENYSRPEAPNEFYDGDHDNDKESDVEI
T3 sequence (Q13547 whole entry, looked up, one chain of several): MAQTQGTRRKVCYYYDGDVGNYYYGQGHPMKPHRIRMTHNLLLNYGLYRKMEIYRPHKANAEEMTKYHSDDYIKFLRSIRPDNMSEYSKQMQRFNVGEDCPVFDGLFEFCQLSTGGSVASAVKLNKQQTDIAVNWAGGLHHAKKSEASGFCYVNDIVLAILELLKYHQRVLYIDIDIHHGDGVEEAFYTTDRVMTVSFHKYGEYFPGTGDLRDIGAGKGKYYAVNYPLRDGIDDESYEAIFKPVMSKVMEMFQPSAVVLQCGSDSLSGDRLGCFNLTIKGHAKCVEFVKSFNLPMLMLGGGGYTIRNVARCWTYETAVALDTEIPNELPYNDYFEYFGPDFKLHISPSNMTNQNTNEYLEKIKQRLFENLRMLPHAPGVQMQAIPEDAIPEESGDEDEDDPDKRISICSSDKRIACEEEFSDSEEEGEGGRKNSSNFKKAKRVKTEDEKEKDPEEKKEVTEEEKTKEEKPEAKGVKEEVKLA
T3 sequence (Q92769 whole entry, looked up, one chain of several): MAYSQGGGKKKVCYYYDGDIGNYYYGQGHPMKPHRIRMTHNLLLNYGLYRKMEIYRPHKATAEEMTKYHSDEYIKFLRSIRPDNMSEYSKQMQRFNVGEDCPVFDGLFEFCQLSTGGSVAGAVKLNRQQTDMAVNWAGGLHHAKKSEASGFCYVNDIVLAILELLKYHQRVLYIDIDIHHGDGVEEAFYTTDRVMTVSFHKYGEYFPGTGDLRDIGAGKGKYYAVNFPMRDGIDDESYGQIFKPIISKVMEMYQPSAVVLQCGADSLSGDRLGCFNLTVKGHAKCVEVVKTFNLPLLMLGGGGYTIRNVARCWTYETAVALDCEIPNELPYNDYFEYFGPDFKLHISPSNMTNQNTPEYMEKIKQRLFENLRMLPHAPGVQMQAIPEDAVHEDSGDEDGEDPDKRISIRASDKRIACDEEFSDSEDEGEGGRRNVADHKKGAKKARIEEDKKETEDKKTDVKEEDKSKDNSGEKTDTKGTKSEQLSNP
Histone deacetylase 1, sequence (Q13547 whole entry): as the sequence (Q13547 whole entry, looked up, one chain of several) above

Row | Structure (SMILES) | EC50 [1] [nM] | IC50 [2] [nM] | solubility [3] [µg/mL] | IC50 [4] [nM] | IC50 [5] [nM] | other results
1 | O=C(NO)c1ccc(OC2CCN(c3ccccc3)C2=O)cc1 (stereo unspecified) | > 30000 | > 100000 | 203 (≈ 650 µM) | 4920 | 5740 | inhibition [6]: inactive
2 | C[C@@]1(Nc2ccc(C(=O)NO)cc2)CCN(c2ccc(Cl)cc2)C1=O | 1900 | 24500 | 34 (≈ 94.5 µM) | 590 | 260 | inhibition [7]: inactive
3 | O=C(NO)c1ccc(NC2CCN(c3ccc(Cl)cc3)C2=O)cc1F (stereo unspecified) | 13500 | – | < 1 | – | – | –
4 | CC1(Nc2ccc(C(=O)NO)cc2)CCN(c2ccccc2)C1=O (stereo unspecified) | 2600 | > 100000 | 415 (≈ 1280 µM) | 590 | 460 | –
5 | O=C(NO)c1ccc(NC2CCN(c3ccc(Cl)c(Cl)c3)C2=O)cc1 (stereo unspecified) | – | 15900 | < 1 | 160 | 63 | –
6 | O=C(NO)c1ccc(NC2CCN(c3ccccc3Cl)C2=O)cc1 (stereo unspecified) | – | 21800 | 24 (≈ 69.4 µM) | 150 | 360 | –
7 | CS(=O)(=O)c1ccc(N2CCC(Nc3ccc(C(=O)NO)cc3)C2=O)cc1 (stereo unspecified) | – | 17100 | 97 (≈ 249 µM) | 120 | 140 | –
8 | O=C(NO)c1ccc(NC2CCN(c3ccc(Cl)cc3)C2=O)cc1 (stereo unspecified) | – | 14300 | < 1 | 120 | 160 | CLint scaled at 1 µM [8]: 8 mL/min/kg; inhibition [7]: inactive; clearance [9]: 156 mL/min/kg; Cmax [10]: 57 ng/mL; half-life [11]: 66 min; bioavailability [12]: 3%; CLint scaled at 1 µM [13]: 44 mL/min/kg; AUC [14]: 1065 µg/L/h; AUC [15]: 278 µg/L/h
9 | O=C(NO)c1ccc(NC2CCN(c3ccc(Cl)cc3)C2)cc1 (stereo unspecified) | – | 19200 | < 1 | 860 | 860 | CLint scaled at 1 µM [13]: 53 mL/min/kg
10 | CN(C)CCOc1cccc(N2CCC(Nc3ccc(C(=O)NO)cc3)C2=O)c1 (stereo unspecified) | 2000 | – | > 400 | – | – | –
11 | O=C(NO)c1ccc(NC2CCN(c3cccc(Cl)c3)C2=O)cc1 (stereo unspecified) | – | 12100 | 17 (≈ 49.2 µM) | 180 | 90 | –
12 | CN(c1ccc(C(=O)NO)cc1)C1CCN(c2ccccc2)C1=O (stereo unspecified) | > 30000 | > 100000 | – | 8200 | 48800 | inhibition [6]: inactive
13 | O=C(NO)c1ccc(NC2CCN(c3ccc4ccccc4c3)C2=O)cc1 (stereo unspecified) | 1100 | – | < 1 | – | – | –
14 | N#Cc1ccc(N2CCC(Nc3ccc(C(=O)NO)cc3)C2=O)cc1 (stereo unspecified) | 3100 | 12800 | 28 (≈ 83.2 µM) | 160 | 100 | –
15 | CC1(Nc2ccc(C(=O)NO)cc2)CCN(c2ccc3ncccc3c2)C1=O (stereo unspecified) | – | 6020 | 17 (≈ 45.2 µM) | 76 | 18 | inhibition [16]: Active
16 | O=C(NO)c1ccc(NC2CC(=O)N(c3ccccc3)C2)cc1 (stereo unspecified) | 18100 | > 100000 | > 350 | 6250 | 2260 | inhibition [6]: inactive
17 | O=C(NO)c1ccc(NC2CCN(c3ccc(C(F)(F)F)cc3)C2=O)cc1 (stereo unspecified) | 16200 | 26700 | 43 (≈ 113 µM) | 110 | 250 | –
18 | O=C(NO)c1ccc2c(c1)CC(Nc1nccc(-c3cccnc3)n1)CN2 (stereo unspecified) | – | 9960 | 210 (≈ 579 µM) | – | 12 | clearance [9]: 74 mL/min/kg; inhibition [6]: inactive
19 | O=C(NO)c1ccc2c(c1)C[C@H](Nc1nccc(-c3cccnc3)n1)CC2 | – | – | – | – | – | clearance [9]: 99 mL/min/kg
20 | O=C(NO)c1ccc(NC2CCN(c3ccc(Cl)cc3)C2=O)c(Cl)c1 (stereo unspecified) | 17400 | 29400 | < 1 | 22400 | 1070 | –
21 | CC1(Nc2ccc(C(=O)NO)cc2)CCN(c2ccc(Cl)cc2)C1=O (stereo unspecified) | – | 11200 | 6 (≈ 16.7 µM) | 410 | 21 | inhibition [16]: Active
22 | O=C(NO)c1ccc(NC2CCN(CCc3ccccc3)C2=O)cc1 (stereo unspecified) | 16600 | 8880 | 63 (≈ 186 µM) | 260 | 240 | –
23 | CNc1ccc(C(=O)NO)cc1 | 19200 | 52300 | – | 940 | 1770 | inhibition [6]: inactive
24 | O=C(CCCCCCC(=O)Nc1ccccc1)NO [VORINOSTAT] | – | – | > 385 | – | – | CLint scaled at 1 µM [8]: 0.1 mL/min/kg; bioavailability [17]: 8%; clearance [9]: 112 mL/min/kg; half-life [11]: 24 min; AUC [18]: 619 µg/L/h; CLint scaled at 1 µM [13]: 33 mL/min/kg; AUC [14]: 1486 µg/L/h
25 | O=C(NO)c1ccc(NC2CCN(Cc3ccccc3)C2=O)cc1 (stereo unspecified) | – | 11700 | > 385 | 760 | 510 | –
